From patent US20100267561A1, “HERBICIDAL PYRIDAZINONE DERIVATIVES” (priority 2007, published 2010)

Tests used:
Assay type in all cases: in vivo
[1] = system: barnyardgrass (Echinochloa crus-galli); assay: Test A pre-/postemergence plant response
Procedure, shortened: (§1)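 Ratings run 0–100 (100 = complete control), assigned visually against untreated controls roughly 10 days after treatment in a greenhouse. Compounds, formulated in non-phytotoxic solvent containing surfactant, were applied as a soil-directed preemergence spray and concurrently postemergence to one- to two-leaf plants 2–10 cm tall.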

corn (Zea mays) = assay: Test A pre-/postemergence plant response
Procedure, shortened: as §1

[2] = system: morningglory (Ipomoea coccinea); assay: Test A pre-/postemergence plant response
Procedure, shortened: as §1

[3] = system: pigweed (Amaranthus retroflexus); assay: Test A pre-/postemergence plant response
Procedure, shortened: as §1

[4] = system: wheat (Triticum aestivum); assay: Test A pre-/postemergence plant response
Procedure, shortened: as §1

[5] = system: catchweed bedstraw (Galium aparine); assay: Test B pre-/postemergence plant response; conditions: Preemergence
Procedure, shortened: (§2)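 Visual scoring from 0 (no effect) to 100 (complete control) against untreated controls was done 13 to 15 days after greenhouse treatment. Chemicals were formulated in a surfactant-containing non-phytotoxic solvent and applied to soil preemergence or to 1- to 4-leaf (2-18 cm) plants postemergence.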

[6] = system: johnsongrass (Sorghum halepense); assay: Test B pre-/postemergence plant response
Procedure, shortened: as §2

[7] = system: pigweed (Amaranthus retroflexus); assay: Test B pre-/postemergence plant response
Procedure, shortened: as §2

[8] = system: canarygrass (Phalaris minor); assay: Test B postemergence plant response; conditions: Postemergence
Procedure, shortened: (§3)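 Visual injury score from 0 (none) to 100 (complete control) versus controls, taken 13 to 15 days after treatment in the greenhouse; chemicals applied postemergence, as formulated, to plants of 1- to 4-leaf stage (2 to 18 cm tall); dash denotes no test result.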

[9] = system: chickweed (Stellaria media); assay: Test B postemergence plant response; conditions: Postemergence
Procedure, shortened: as §3

[10] = system: windgrass (Apera spica-venti); assay: Test B postemergence plant response; conditions: Postemergence
Procedure, shortened: as §3

[11] = system: winter barley (Hordeum vulgare); assay: Test B postemergence plant response; conditions: Postemergence
Procedure, shortened: as §3

[12] = Postemergence, 125 g ai/ha, 0 to 100 scale, 0 no effect, 100 complete control
[13] = Postemergence, 500 g ai/ha, 0 to 100 scale, 0 no effect, 100 complete control
[14] = Preemergence, 125 g ai/ha, 0 to 100 scale (0 no effect, 100 complete control)
[15] = Preemergence, 500 g ai/ha, 0 to 100 scale (0 no effect, 100 complete control)
[16] = 31 g ai/ha, 0 to 100 scale, 0 no effect, 100 complete control
[17] = Postemergence, 16 g ai/ha, scale 0 to 100
[18] = Postemergence, 31 g ai/ha, scale 0 to 100, 0 no effect, 100 complete control
[19] = Postemergence, 62 g ai/ha, scale 0 to 100
[20] = Postemergence, 125 g ai/ha, scale 0 to 100
[21] = Preemergence, 31 g ai/ha, 0 to 100 scale, 0 no effect, 100 complete control
[22] = Preemergence, 62 g ai/ha, scale 0 to 100
[23] = Preemergence, 125 g ai/ha, scale 0 to 100
[24] = 31 g ai/ha, scale 0 to 100, 0 no effect, 100 complete control
[25] = Postemergence, 250 g ai/ha, scale 0 to 100
[26] = Preemergence, 250 g ai/ha, scale 0 to 100

## CCc1cc(-c2ccc(C(F)(F)F)cc2)nn1-c1c(OC(=O)OC(C)C)cnn(C)c1=O [Compound 12]
[1]; [12]
  Plant response rating, Barnyardgrass: 90
[1]; [13]
  Plant response rating, Barnyardgrass: 100
[1]; [14]
  Plant response rating, Barnyardgrass: 100
[1]; [15]
  Plant response rating, Barnyardgrass: 100
Corn (Zea mays); [12]
  Plant response rating, Corn: 90
Corn (Zea mays); [13]
  Plant response rating, Corn: 90
Corn (Zea mays); [14]
  Plant response rating, Corn: 80
Corn (Zea mays); [15]
  Plant response rating, Corn: 90
[2]; [12]
  Plant response rating, Morningglory: 0
[2]; [13]
  Plant response rating, Morningglory: 0
[2]; [14]
  Plant response rating, Morningglory: 0
[2]; [15]
  Plant response rating, Morningglory: 0
[3]; [12]
  Plant response rating, Pigweed: 0
[3]; [13]
  Plant response rating, Pigweed: 0
[3]; [14]
  Plant response rating, Pigweed: 0
[3]; [15]
  Plant response rating, Pigweed: 0
[4]; [12]
  Plant response rating, Wheat: 70
[4]; [13]
  Plant response rating, Wheat: 90
[4]; [14]
  Plant response rating, Wheat: 90
[4]; [15]
  Plant response rating, Wheat: 100
[5]; 16 g ai/ha, scale 0 to 100 (0 no effect, 100 complete control)
  Plant response rating, Galium: 0
[5]; [16]
  Plant response rating, Galium: 0
[5]; 62 g ai/ha, scale 0 to 100
  Plant response rating, Galium: 0
[5]; 125 g ai/ha, scale 0 to 100
  Plant response rating, Galium: 0
[6]; [17]
  Plant response rating, Johnsongrass: 100
[6]; [18]
  Plant response rating, Johnsongrass: 100
[6]; [19]
  Plant response rating, Johnsongrass: 100
[6]; [20]
  Plant response rating, Johnsongrass: 100
[6]; Preemergence, 16 g ai/ha, scale 0 to 100 (0 no effect, 100 complete control)
  Plant response rating, Johnsongrass: 70
[6]; [21]
  Plant response rating, Johnsongrass: 95
[6]; [22]
  Plant response rating, Johnsongrass: 100
[6]; [23]
  Plant response rating, Johnsongrass: 100
[7]; [17]
  Plant response rating, Pigweed: 0
[7]; [18]
  Plant response rating, Pigweed: 0
[7]; [19]
  Plant response rating, Pigweed: 5
[7]; [20]
  Plant response rating, Pigweed: 50
[8]; 16 g ai/ha, scale 0 to 100
  Plant response rating, Canarygrass: 100
[8]; [24]
  Plant response rating, Canarygrass: 100
[8]; 62 g ai/ha, scale 0 to 100
  Plant response rating, Canarygrass: 100
[8]; 125 g ai/ha, scale 0 to 100
  Plant response rating, Canarygrass: 100
[9]; 16 g ai/ha, scale 0 to 100
  Plant response rating, Chickweed: 0
[9]; [24]
  Plant response rating, Chickweed: 0
[9]; 62 g ai/ha, scale 0 to 100
  Plant response rating, Chickweed: 0
[9]; 125 g ai/ha, scale 0 to 100
  Plant response rating, Chickweed: 0
[10]; 16 g ai/ha, scale 0 to 100
  Plant response rating, Windgrass: 100
[10]; [24]
  Plant response rating, Windgrass: 100
[10]; 62 g ai/ha, scale 0 to 100
  Plant response rating, Windgrass: 100
[10]; 125 g ai/ha, scale 0 to 100
  Plant response rating, Windgrass: 100
[11]; 16 g ai/ha, scale 0 to 100, 0 no effect, 100 complete control
  Plant response rating, Barley: 80
[11]; [24]
  Plant response rating, Barley: 95
[11]; 62 g ai/ha, scale 0 to 100
  Plant response rating, Barley: 100
[11]; 125 g ai/ha, scale 0 to 100
  Plant response rating, Barley: 100

## Cc1nn(C)c(=O)c(-n2nc(-c3ccc(Cl)cc3)cc2C)c1O [Compound 15]
[1]; [12]
  Plant response rating, Barnyardgrass: 100
[1]; [13]
  Plant response rating, Barnyardgrass: 100
[1]; [14]
  Plant response rating, Barnyardgrass: 100
[1]; [15]
  Plant response rating, Barnyardgrass: 100
Corn (Zea mays); [12]
  Plant response rating, Corn: 70
Corn (Zea mays); [13]
  Plant response rating, Corn: 90
Corn (Zea mays); [14]
  Plant response rating, Corn: 50
Corn (Zea mays); [15]
  Plant response rating, Corn: 90
[2]; [12]
  Plant response rating, Morningglory: 0
[2]; [13]
  Plant response rating, Morningglory: 0
[2]; [14]
  Plant response rating, Morningglory: 0
[2]; [15]
  Plant response rating, Morningglory: 0
[3]; [12]
  Plant response rating, Pigweed: 0
[3]; [13]
  Plant response rating, Pigweed: 0
[3]; [14]
  Plant response rating, Pigweed: 0
[3]; [15]
  Plant response rating, Pigweed: 0
[4]; [12]
  Plant response rating, Wheat: 50
[4]; [13]
  Plant response rating, Wheat: 60
[4]; [14]
  Plant response rating, Wheat: 60
[4]; [15]
  Plant response rating, Wheat: 80
[5]; [16]
  Plant response rating, Galium: 0
[5]; 62 g ai/ha, scale 0 to 100
  Plant response rating, Galium: 0
[5]; 125 g ai/ha, scale 0 to 100
  Plant response rating, Galium: 10
[5]; 250 g ai/ha, scale 0 to 100
  Plant response rating, Galium: 100
[6]; [18]
  Plant response rating, Johnsongrass: 70
[6]; [19]
  Plant response rating, Johnsongrass: 80
[6]; [20]
  Plant response rating, Johnsongrass: 100
[6]; [25]
  Plant response rating, Johnsongrass: 100
[6]; [21]
  Plant response rating, Johnsongrass: 70
[6]; [22]
  Plant response rating, Johnsongrass: 95
[6]; [23]
  Plant response rating, Johnsongrass: 98
[6]; [26]
  Plant response rating, Johnsongrass: 100
[7]; [18]
  Plant response rating, Pigweed: 0
[7]; [19]
  Plant response rating, Pigweed: 0
[7]; [20]
  Plant response rating, Pigweed: 0
[7]; [25]
  Plant response rating, Pigweed: 0
[7]; [21]
  Plant response rating, Pigweed: 0
[7]; [22]
  Plant response rating, Pigweed: 0
[7]; [23]
  Plant response rating, Pigweed: 0
[7]; [26]
  Plant response rating, Pigweed: 0
[8]; [24]
  Plant response rating, Canarygrass: 35
[8]; 62 g ai/ha, scale 0 to 100
  Plant response rating, Canarygrass: 35
[8]; 125 g ai/ha, scale 0 to 100
  Plant response rating, Canarygrass: 85
[9]; [24]
  Plant response rating, Chickweed: 0
[9]; 62 g ai/ha, scale 0 to 100
  Plant response rating, Chickweed: 0
[9]; 125 g ai/ha, scale 0 to 100
  Plant response rating, Chickweed: 0
[9]; 250 g ai/ha, scale 0 to 100
  Plant response rating, Chickweed: 0
[10]; [24]
  Plant response rating, Windgrass: 90
[10]; 62 g ai/ha, scale 0 to 100
  Plant response rating, Windgrass: 90
[10]; 125 g ai/ha, scale 0 to 100
  Plant response rating, Windgrass: 100
[10]; 250 g ai/ha, scale 0 to 100
  Plant response rating, Windgrass: 100
[11]; [24]
  Plant response rating, Barley: 10
[11]; 62 g ai/ha, scale 0 to 100
  Plant response rating, Barley: 10
[11]; 125 g ai/ha, scale 0 to 100
  Plant response rating, Barley: 90

## CCc1cc(-c2ccc(C(F)(F)F)cc2)nn1-c1c(O)c(C)nn(C)c1=O [Compound 16]
[1]; [12]
  Plant response rating, Barnyardgrass: 90
[1]; [13]
  Plant response rating, Barnyardgrass: 100
[1]; [14]
  Plant response rating, Barnyardgrass: 100
[1]; [15]
  Plant response rating, Barnyardgrass: 100
Corn (Zea mays); [12]
  Plant response rating, Corn: 90
Corn (Zea mays); [13]
  Plant response rating, Corn: 100
Corn (Zea mays); [14]
  Plant response rating, Corn: 70
Corn (Zea mays); [15]
  Plant response rating, Corn: 90
[2]; [12]
  Plant response rating, Morningglory: 0
[2]; [13]
  Plant response rating, Morningglory: 0
[2]; [14]
  Plant response rating, Morningglory: 0
[2]; [15]
  Plant response rating, Morningglory: 0
[3]; [12]
  Plant response rating, Pigweed: 0
[3]; [13]
  Plant response rating, Pigweed: 0
[3]; [14]
  Plant response rating, Pigweed: 0
[3]; [15]
  Plant response rating, Pigweed: 0
[4]; [12]
  Plant response rating, Wheat: 70
[4]; [13]
  Plant response rating, Wheat: 90
[4]; [14]
  Plant response rating, Wheat: 70
[4]; [15]
  Plant response rating, Wheat: 100
[5]; [16]
  Plant response rating, Galium: 0
[5]; 62 g ai/ha, scale 0 to 100
  Plant response rating, Galium: 0
[5]; 125 g ai/ha, scale 0 to 100
  Plant response rating, Galium: 0
[5]; 250 g ai/ha, scale 0 to 100
  Plant response rating, Galium: 0
[6]; [18]
  Plant response rating, Johnsongrass: 98
[6]; [19]
  Plant response rating, Johnsongrass: 100
[6]; [20]
  Plant response rating, Johnsongrass: 100
[6]; [25]
  Plant response rating, Johnsongrass: 100
[6]; [21]
  Plant response rating, Johnsongrass: 25
[6]; [22]
  Plant response rating, Johnsongrass: 70
[6]; [23]
  Plant response rating, Johnsongrass: 100
[6]; [26]
  Plant response rating, Johnsongrass: 100
[7]; [18]
  Plant response rating, Pigweed: 0
[7]; [19]
  Plant response rating, Pigweed: 0
[7]; [20]
  Plant response rating, Pigweed: 0
[7]; [25]
  Plant response rating, Pigweed: 0
[7]; [22]
  Plant response rating, Pigweed: 0
[7]; [23]
  Plant response rating, Pigweed: 0
[7]; [26]
  Plant response rating, Pigweed: 0
[8]; [24]
  Plant response rating, Canarygrass: 70
[8]; 62 g ai/ha, scale 0 to 100
  Plant response rating, Canarygrass: 95
[9]; [24]
  Plant response rating, Chickweed: 0
[9]; 62 g ai/ha, scale 0 to 100
  Plant response rating, Chickweed: 0
[9]; 125 g ai/ha, scale 0 to 100
  Plant response rating, Chickweed: 0
[9]; 250 g ai/ha, scale 0 to 100
  Plant response rating, Chickweed: 0
[10]; [24]
  Plant response rating, Windgrass: 90
[10]; 62 g ai/ha, scale 0 to 100
  Plant response rating, Windgrass: 100
[10]; 125 g ai/ha, scale 0 to 100
  Plant response rating, Windgrass: 100
[10]; 250 g ai/ha, scale 0 to 100
  Plant response rating, Windgrass: 100
[11]; [24]
  Plant response rating, Barley: 90
[11]; 62 g ai/ha, scale 0 to 100
  Plant response rating, Barley: 90
[11]; 125 g ai/ha, scale 0 to 100
  Plant response rating, Barley: 95
[11]; 250 g ai/ha, scale 0 to 100
  Plant response rating, Barley: 98
